Assay results as given in patent EP0624368A2, “Use of a composition for stimulating the synthesis of glutathione in the manufacture of a medicament for the treatment of acquired immune deficiency syndrome” (priority 1993, dated 1994).

Key:
[1] = test system: H-9, MT-2, and PBMC; experiment: Toxicity study (median lethal dose), all three cell systems together; assay type: cell-based; settings: range over the cell systems studied in this protocol
Description: (§1) The median lethal doses (LD₅₀) of single treatment of Procysteine® were 5 mM with PBMC, 21 mM with H-9 cells, and 31 mM with MT-2 cells. […] Therefore, both 25 mM or 50 mM of Procysteine® could have caused significant cell mortality in the test cell systems. […] To avoid the misinterpretation of drug antiviral efficacy due to toxicity, an alternative design using lower concentrations of Procysteine® in the combination treatment was performed. […] The HIV p24 assays were performed for analysis.

[2] = test system: HIV-1 (strain IIIB); experiment: HIV p24 antigen assay in PBMC (single and combination treatment); assay type: cell-based; settings: 50 IU/well HIV
Source text: (§2) Three cell culture systems were used in this study: H-9 cells; MT-2 cells; and normal human peripheral blood mononuclear cells (PBMC). H-9 cells were obtained from Advanced Biotechnology Inc. (ABI). MT-2 cells were obtained from Dr. J. Armstrong of the University of Pittsburgh. MT-2 cells are HTLV-I transformed human T lymphocytes and continuously produce HTLV-I virions. PBMC were obtained from healthy donors, purified by Ficol-Hypaque, and stimulated with PHA mitogen before being used in the efficacy studies. The initial stock of HIV-1 (strain IIIB) used in this study was obtained from ABI and the working stocks were produced.
(§3) Cells were collected, put into tissue culture plates and incubated with different concentrations of drugs in RPMI 1640 tissue culture medium for 20 minutes prior to HIV challenge. Infection was carried out by inoculating 20-100 HIV infectious units (IU)/well inoculum without removing the drugs. The untreated cells exposed to HIV challenge served as positive controls. The normal untreated uninfected cells served as negative controls.
(§4) When evaluating the efficacies of drugs in H-9 cells and PBMC systems, only HIV p24 assays were used. To calculate the ED₅₀ values, a second order linear regression was applied on the logarithm of the tested doses of different drugs against the OD readings obtained from either MTT assays or HIV p24 assays.
(§5) Cells were collected, put into tissue culture plates and incubated with different combinations of drugs for 20 minutes prior to HIV infection in the combined treatment studies. Infection was carried out by inoculating 20-100 HIV IU/well inoculum without removing the drugs. The inocula were the same as the ones used in the single drug treatment to obtain the ED₅₀ values. Both MTT assays and HIV p24 antigen assays were used in evaluation of drug effects in MT-2 cells but only HIV p24 antigen assays were used for H-9 cells or PBMC.
(§6) Therefore, if the CI is less than 1, it indicates synergism among the tested drugs. Similarly, if the CI is equal to 1, the effects are additive, while a CI value greater than 1 is indicative of an antagonistic effect.

[3] = test system: HIV-1 (strain IIIB); experiment: HIV p24 antigen assay in H-9 cells (single and combination treatment); assay type: cell-based; settings: 80 IU/well HIV; for OD readings at 450 nm (HIV p24 antigen): H-9
Source text: as §2, §3, §4, §5, §6

[4] = test system: HIV-1 (strain IIIB); experiment: HIV p24 antigen assay in MT-2 cells (single and combination treatment); assay type: cell-based; settings: 20 IU/well HIV; for OD readings at 450 nm (HIV p24 antigen): MT-2
Source text: as §2, §3
(§7) Both the MTT assay and HIV p24 ELISA were used for evaluation of drug efficacies with MT-2 cells. The MTT assay is based upon the metabolic reduction of the MTT tetrazolium bromide dye in live cells. The OD readings (at 540 nm) obtained from the MTT assay are inversely correlated to the levels of cell mortality due to HIV infection or the cytotoxic effect of drugs. […] The HIV p24 antigen assay measures the level of HIV antigen present in the sample (i.e., culture supernatant).
as §4, §5, §6

[5] = test system: HIV-1 (strain IIIB); experiment: MTT assay of protection against acute HIV infection in MT-2 cells; assay type: cell-based; settings: 100 IU/well HIV; for OD readings at 540 nm (MTT assay): MT-2, Day 6 cultures
Source text: as §2, §3, §7, §4

[6] = test system: PBMC; experiment: Toxicity study (median lethal dose) in PBMC; assay type: cell-based, human
Description: as §1

[7] = test system: H-9 cells; experiment: Toxicity study (median lethal dose) in H-9 cells; assay type: cell-based
Description: as §1

[8] = test system: MT-2 cells; experiment: Toxicity study (median lethal dose) in MT-2 cells; assay type: cell-based, human
Description: as §1

O=C1N[C@H](C(=O)O)CS1 [Procysteine®]
median lethal doses (LD50) [1]: 5 to 30 mM | OD readings at 450 nm (HIV p24 antigen) ([2]; 0.023 mM): 3.703 | OD readings at 450 nm (HIV p24 antigen) ([2]; 0.23 mM): 3.057 | OD readings at 450 nm (HIV p24 antigen) ([2]; 0.93 mM): 2.951 | OD readings at 450 nm (HIV p24 antigen) ([2]; 3.75 mM): 3.640 | OD readings at 450 nm (HIV p24 antigen) ([2]; 15 mM): 3.284 | OD readings at 450 nm (HIV p24 antigen) ([2]; 60 mM): 1.141 | Calculated single treatment ED50 ([2]; p24 assay): 378 mM | OD readings at 450 nm (HIV p24 antigen) ([3]; 0.023 mM): 4.133 | OD readings at 450 nm (HIV p24 antigen) ([3]; 0.23 mM): 4.133 | OD readings at 450 nm (HIV p24 antigen) ([3]; 0.93 mM): 4.133 | OD readings at 450 nm (HIV p24 antigen) ([3]; 3.75 mM): 4.133 | OD readings at 450 nm (HIV p24 antigen) ([3]; 15 mM): 4.099 | OD readings at 450 nm (HIV p24 antigen) ([3]; 60 mM): 0.767 | Calculated single treatment ED50 ([3]; H-9 cells, p24 assay): 653 mM | OD readings at 450 nm (HIV p24 antigen) ([4]; 0.023 mM): 3.269 | OD readings at 450 nm (HIV p24 antigen) ([4]; 0.23 mM): 3.712 | OD readings at 450 nm (HIV p24 antigen) ([4]; 0.93 mM): 3.762 | OD readings at 450 nm (HIV p24 antigen) ([4]; 3.75 mM): 3.649 | OD readings at 450 nm (HIV p24 antigen) ([4]; 15 mM): 2.825 | OD readings at 450 nm (HIV p24 antigen) ([4]; 60 mM): 1.675 | Calculated single treatment ED50 ([4]; MT-2 cells, p24 assay): 1613 mM | OD readings at 540 nm (MTT assay) ([5]; 0.023 mM): 0.392 | OD readings at 540 nm (MTT assay) ([5]; 0.23 mM): 0.265 | OD readings at 540 nm (MTT assay) ([5]; 0.93 mM): 0.283 | OD readings at 540 nm (MTT assay) ([5]; 3.75 mM): 0.270 | OD readings at 540 nm (MTT assay) ([5]; 15 mM): 0.308 | OD readings at 540 nm (MTT assay) ([5]; 60 mM): 0.350 | Calculated single treatment ED50 ([5]; MT-2 cells, MTT assay): 2.3e+13 mM | median lethal doses (LD50) ([6]; single treatment): 5 mM | LD50 value ([6]; with 1 µM of AZT): 8.3 mM | median lethal doses (LD50) ([7]; single treatment): 21 mM | LD50 value ([7]; with 1 µM of AZT): 30 mM | LD50 value ([8]; as quoted in the discussion of ddI combination treatment): 31 to 32 mM | median lethal doses (LD50) ([8]; single treatment): 31 mM | LD50 value ([8]; with 1 µM of AZT): 36 mM
